Results reported in US20250009856A1, “METHODS FOR TREATING RESPIRATORY DISEASES” (MUCPharm Pty Ltd, priority 2021, published 2025).
Where “and” joins values, the source holds several entries; their conditions need not be identical. Equal values may be shown once.

How the values were obtained:
[1] = tested on: chemokines, cytokines and growth factors in tracheal aspirate samples from COVID-19 patients; assay: Immunological inflammatory mediators, 27-plex bead assay; parameters: species or system human; conditions: BromAc 125 and 250 mcg + 2% NAC, or NAC alone at 2%; 60 minutes, 37° C.
Description: In order to verify the effect of BromAc in the inflammatory mediators present in tracheal aspirate (TA) samples from COVID-19 patients. TA specimens were treated with 125 to 250 μg of Bromelain and 2% NAC (BromAc) using the MAD device as described previously. Treated and untreated TA specimens were incubated at 37° C. in 6 well plates for 1 hour. After that, TA specimen aliquots were initially cleared by centrifugation at 800×g for 10 min, at room temperature and TA supernatants were transferred to fresh 2 mL microtubes. Samples were diluted 1:10 and incubated with magnetic beads covered with monoclonal antibodies specific to several immunological mediators, such as: chemokines (CXCL8, CCL11, CCL3, CCL4, CCL2, and CXCL10), inflammatory cytokines (IL-1b, IL-6, TNF-α, IL-12, IFN-g, IL-15 and IL-17), regulatory cytokines (IL-1Ra, IL-9. IL-10) and growth factors (FGF-basic, PDGF, VEGF, G-CSF. GM-CSF, IL-2 and IL-7). Experiments were carried out according to the manufacturer's instructions using the Procarta Human Cytokine 27-plex Assay, (Invitrogen, CA, USA). The immunological mediators were measured in TA samples and the concentrations of each sample was determined according to standard curves run for each molecule tested using a fifth parameter logistic fit analysis. The results were expressed as pg/mL for all mediators tested. […]

[2] = Dynamic viscosity (capillary tube) after aerosol treatment; parameters: species or system human; conditions: SS; for Dynamic viscosity (γ), After: before 1.748 ± 0.006
Description: Six grams of soft PMP mucin was homogenised using a shredder with phosphate buffer saline (PBS) (3.0 ml) with sonification and vortexed until a homogenous mixture was formed, with incubation at 37° C. to remove air bubbles and after which viscosity was adjusted (further dilutions with PBS). The pH was adjusted to 7.0 using either 1.0 M NaOH or 0.1 N Hydrochloric acid. Dynamic viscosity (Y) of sputum was measured using the capillary tube method as outlined in […]. and G. Castellano, Determination of the kinematic viscosity by the liquid rise in a capillary tube. […] Ensino de Física, 2013. 35. A similar investigation as above was carried out to determine a comparative dynamic viscosity and pipette flow time for PMP mucin simulated sputa (SS). A similar treatment as in the experiment described above for NAC was carried out using Bromelain (125 and 250 μg/ml) in PBS (pH.7.0) along with control using PBS (pH.7.0). Both dynamic viscosity and pipette flow time was measured as outlined earlier for both artificial and PMP simulated sputa models. Using a combination of NAC (20 mg/ml) with either 125 or 250 μg/ml Bromelain in PBS (pH.7.0), a similar investigation was carried out as outlined earlier and measurements were made for both artificial and simulated sputa models. D=(TREATED)-(UNTREATED/(UNTREATED)×100.

[3] = Pipette flow speed after aerosol treatment; conditions: AS; for Pipette flow speed (€), After: before 0.005 ± 0.001
Description: Artificial sputum was prepared following protocol as detailed by […] et al (Kirchner, S., et al., Use of artificial sputum medium to test antibiotic efficacy against Pseudomonas aeruginosa in conditions more relevant to the cystic fibrosis lung. Journal of visualized experiments: JOVE, 2012 (64)). Briefly 250 mg of porcine mucin, 200 mg of sperm DNA, 295 mg of diethylene triamine pentaacetic acid (DPTA), 25 mg sodium chloride, 110 mg potassium chloride, 140 mg Tris base were mixed in a volume of 45 ml of distilled water and pH adjusted to 7.0 using Trisbase. The volume of the solution was then adjusted to 50 ml. Further dilutions were then carried out to adjust viscosity as desired. Using a 0.5 ml glass pipette fixed at an angle of 60°, 0.5 ml of sample at 25° C. (ambient room temperature) was sucked up the pipette and the time taken to empty 0.3 ml of the sample was timed in sec. Pipette flow time (€) was calculated as follows: € (ml/sec)=0.3 ml/Time to empty 0.3 ml (sec) Artificial sputa (AS) were prepared as detailed above, and 1.5 ml of artificial sputum was carefully emptied into an endotracheal tube (in triplicates). A volume of 6.0 ml of NAC 10 mg/ml in PBS (pH.7.0) in triplicate was aerosolised using a nebulizer and passed over the sputum samples in the endotracheal tubes kept at 37° C. in a water bath. Similarly, the experiments were repeated using NAC 20 mg/ml in PBS (pH.7.0). The controls only received PBS (pH 7.0). The aerosol delivery time to empty 6.0 ml for each treatment was 25 min. The dynamic viscosity of the sputa was measured before and after using the capillary tube method, whilst the pipette flow time was also measured as described earlier using a 0.5 ml glass pipette. Samples were equilibrated to 25° C. before measurement A similar treatment as in the experiment described above for NAC was carried out using Bromelain (125 and 250 μg/ml) in PBS (pH.7.0) along with control using PBS (pH.7.0). Both dynamic viscosity and pipette flow time was measured as outlined earlier for both artificial and PMP simulated sputa models. Using a combination of NAC (20 mg/ml) with either 125 or 250 μg/ml Bromelain in PBS (pH.7.0), a similar investigation was carried out as outlined earlier and measurements were made for both artificial and simulated sputa models. D=(TREATED)-(UNTREATED/(UNTREATED)×100.

sheep lungs = assay: Ventilated sheep lung model, endotracheal tube plugged with PMP mucin; conditions: nebulised twice over 60 minutes; saline showed slight drop
[4] = Bromelain and acetylcysteine in plasma (ELISA), rabbit tolerability study; conditions: 4, 6, 24 and 48 h post-inhalation of 0.1 or 0.25 mg bromelain alone or in combination with acetylcysteine

CC(=O)N[C@@H](CS)C(=O)O [NAC, N-acetylcysteine]
IL-9 level, compared to untreated [1]: the same effect was observed | D (%), decrease of dynamic viscosity (γ) ([2]; aerosol NAC 10 mg/ml): 16% and 16 ↓ % | Dynamic viscosity (γ), After ([2]; aerosol NAC 10 mg/ml): 1.467 ± 0.011 cSt | D (%), decrease of dynamic viscosity (γ) ([2]; aerosol NAC 20 mg/ml): 17% and 17 ↓ % | Dynamic viscosity (γ), After ([2]; aerosol NAC 20 mg/ml): 1.453 ± 0.055 cSt | D (%), increase of pipette flow speed (€) ([3]; aerosol NAC 10 mg/ml): 28% and 28 ↑ % | Pipette flow speed (€), After ([3]; aerosol NAC 10 mg/ml): 0.0064 ± 0.003 mL/s | D (%), increase of pipette flow speed (€) ([3]; aerosol NAC 20 mg/ml): 40% and 40 ↑ % | Pipette flow speed (€), After ([3]; aerosol NAC 20 mg/ml): 0.007 ± 0.001 mL/s | Minute volume (MV) over 60 minutes (sheep lungs): substantial rise in MV | detection in plasma (ELISA) [4]: not detected
